# Data: article PMC12669040, “Tumour-specific STING agonist synthesis via a two-component prodrug system” (Nature Chemistry, 2025)
# Values joined by “and” are separate entries in the source; they are usually repeats but may differ in a detail not shown here. Equal values may be shown once.
# How the values were obtained:
# [1] = tested on: THP-1 Lucia ISG cells (interferon pathway); assay: Potency test of purified dimers on THP-1 Lucia ISG reporter cells; type: cell-based, human; conditions: for EC50: three biological replicates, read-out: EC50, THP-1 Lucia interferon reporter; for Raw readings: replicates 1-3, duplicate wells
# Protocol: Cells were pelleted (150g, 10 min) and resuspended in the growth medium (40% conditioned) at a density of 1 × 10^6 cells ml^−1. The cell suspension was dispensed (50 µl each well) into a lidded white 96-well plate (BrandTech 781665). Test compounds or DMSO control were diluted in the growth medium and sterilized by filtering through 0.22-µm polyethersulfone (PES) membranes (Merck SLGP033RS). […] Upon cooling down to room temperature, 50 µl of reconstituted luciferase substrate (InvivoGen QUANTI-Luc) was added to each well via the injector of the plate reader (Molecular Devices SpectraMax i3x), and the luminescence output was recorded (4 s delay, 0.1 s integration). Raw signals were divided by the averaged signal of the DMSO-treated control wells and reported in relative luminescence unit (RLU). The dose–response curve of each replicate was fitted individually using the standard 4PL model (GraphPad Prism). The EC50 value of each compound was averaged from three independent experiments and reported as mean ± s.e.m.
# Hs578T xenografts = assay: Hs578T zebrafish xenograft model; conditions: for 2dpi phagocytosis: individual larvae; for M1 (M1/M2) / M2 (M1/M2) / Caspase-3 / TAM / Tumor Size: replicate values; for apoptosis (activated Caspase 3) in xenografts: 4 dpi, MSA2 15 μM, SC2S 0.62 μM, β-GlcA-N1/E4 20 μM each
# [2] = Homo sapiens, THP1-Lucia ISG, 24 h
structure (smiles),measurement,setting,value
COc1cc2cc(C(=O)CCC(=O)O)sc2cc1OC [MSA2],fold induction at 0.244141 µM,"[1]; Homo sapiens, THP1-Lucia ISG, 24 h, Concentration 0.244141 μM, three replicates, read-out: Processed reporter response per replicate (reading relative to DMSO)",1.21
same,fold induction at 0.976563 µM,"[1]; Homo sapiens, THP1-Lucia ISG, 24 h, Concentration 0.976563 μM, three replicates, read-out: Processed reporter response per replicate (reading relative to DMSO)",1.26
same,fold induction at 1.95312 µM,"[1]; Homo sapiens, THP1-Lucia ISG, 24 h, Concentration 1.95312 μM, three replicates, read-out: Processed reporter response per replicate (reading relative to DMSO)",0.95
same,fold induction at 3.90625 µM,"[1]; Homo sapiens, THP1-Lucia ISG, 24 h, Concentration 3.90625 μM, three replicates, read-out: Processed reporter response per replicate (reading relative to DMSO)",1.7
same,fold induction at 15.625 µM,"[1]; Homo sapiens, THP1-Lucia ISG, 24 h, Concentration 15.625 μM, three replicates, read-out: Processed reporter response per replicate (reading relative to DMSO)",316
same,fold induction at 31.25 µM,"[1]; Homo sapiens, THP1-Lucia ISG, 24 h, Concentration 31.25 μM, three replicates, read-out: Processed reporter response per replicate (reading relative to DMSO)",499
same,fold induction at 62.5 µM,"[1]; Homo sapiens, THP1-Lucia ISG, 24 h, Concentration 62.5 μM, three replicates, read-out: Processed reporter response per replicate (reading relative to DMSO)",530
same,fold induction at 125 µM,"[1]; Homo sapiens, THP1-Lucia ISG, 24 h, Concentration 125 μM, three replicates, read-out: Processed reporter response per replicate (reading relative to DMSO)",553
same,EC50,[1]; [2],15 µM
same,Raw readings,[1]; MSA2 0.244141 uM,644 RLU and 918 RLU and 1550 RLU and 217 RLU and 421 RLU
same,Raw readings,[1]; MSA2 0.488281 uM,365 RLU and 407 RLU and 1564 RLU and 1732 RLU and 767 RLU and 301 RLU
same,Raw readings,[1]; MSA2 0.976563 uM,533 RLU and 812 RLU and 1033 RLU and 1215 RLU and 1749 RLU and 577 RLU
same,Raw readings,[1]; MSA2 1.95312 uM,558 RLU and 456 RLU and 1596 RLU and 1428 RLU and 16030 RLU and 391 RLU
same,Raw readings,[1]; MSA2 3.90625 uM,737 RLU and 1083 RLU and 2552 RLU and 2286 RLU and 91800 RLU and 972 RLU
same,Raw readings,[1]; MSA2 7.8125 uM,10329 RLU and 8090 RLU and 44667 RLU and 40124 RLU and 159658 RLU and 39192 RLU
same,Raw readings,[1]; MSA2 15.625 uM,182029 RLU and 155323 RLU and 290195 RLU and 281155 RLU and 218467 RLU and 180884 RLU
same,Raw readings,[1]; MSA2 31.25 uM,283415 RLU and 249220 RLU and 393493 RLU and 394488 RLU and 219551 RLU and 327473 RLU
same,Raw readings,[1]; MSA2 62.5 uM,293238 RLU and 272508 RLU and 497557 RLU and 499850 RLU and 276937 RLU and 389453 RLU
same,Raw readings,[1]; MSA2 125 uM,315598 RLU and 275220 RLU and 511799 RLU and 524474 RLU and 276606 RLU and 386234 RLU
same,2dpi phagocytosis,Hs578T xenografts; experiment 230522,35 and 14 and 22 and 25 and 15
same,2dpi phagocytosis,Hs578T xenografts; experiment 230726,13 and 22 and 48 and 31 and 19 and 33 and 17
same,M1 (M1/M2),Hs578T xenografts; 2dpi,60 and 67.5676 and 80 and 70.8333 and 69.7674 and 76.1905 and 64.1026 and 75 and 95.082 and 71.7949 and 80.6452 and 74.4681 and 72.4638 and 63.6364
same,M2 (M1/M2),Hs578T xenografts; 2dpi,40 and 32.4324 and 20 and 29.1667 and 30.2326 and 23.8095 and 35.8974 and 25 and 4.918 and 28.2051 and 19.3548 and 25.5319 and 27.5362 and 36.3636
same,apoptosis (activated Caspase 3) in xenografts,Hs578T xenografts,significantly induced apoptosis
same,M1 (M1/M2),Hs578T xenografts; 4dpi,35.7143 and 18.1818 and 40 (2×) and 21.0526 and 50 (3×) and 20 and 60 (2×) and 61.1111 and 28.125 and 25
same,M2 (M1/M2),Hs578T xenografts; 4dpi,64.2857 and 81.8182 and 60 (2×) and 78.9474 and 50 (3×) and 80 and 40 (2×) and 38.8889 and 71.875 and 75
same,Caspase-3,Hs578T xenografts; experiment 230522,1.291 and 1.3466 and 1.247 and 1.364 and 1.32 and 1.585 and 1.384 and 1.691 and 1.403 and 2.142 and 1.383
same,TAM,Hs578T xenografts; experiment 230522,1.785 and 1.828 and 1.882 and 4.773 and 1.144 and 1.242 and 2.18 and 1.55 and 1.171
same,Tumor Size,Hs578T xenografts; experiment 230522,0.8654 and 0.6638 and 0.8064 and 0.8329 and 0.9735 and 0.8457 and 0.6726 and 0.8811 and 0.8231 and 0.9824 and 0.6461
same,Caspase-3,Hs578T xenografts; experiment 230726,1.714 and 1.239 and 2.528 and 1.801 and 0.8175 and 0.6878 and 1.986 and 0.813 and 0.7306 and 1.755
same,TAM,Hs578T xenografts; experiment 230726,1.62 and 4.474 and 2.224 and 3.257 and 1.206 and 1.259
same,Tumor Size,Hs578T xenografts; experiment 230726,0.8603 and 1.051 and 0.553 and 0.606 and 0.4686 and 0.6683 and 0.7425 and 0.3533 and 0.734 and 0.8296
COc1cc2sc(C(=O)CCC(=O)O)cc2cc1SCCSc1cc2cc(C(=O)CCC(=O)O)sc2cc1OC [SC2S],fold induction at 0.048828 µM,"[1]; Homo sapiens, THP1-Lucia ISG, 24 h, Concentration 0.048828 μM, three replicates, read-out: Processed reporter response per replicate (reading relative to DMSO)",1.32
same,fold induction at 1.5625 µM,"[1]; Homo sapiens, THP1-Lucia ISG, 24 h, Concentration 1.5625 μM, three replicates, read-out: Processed reporter response per replicate (reading relative to DMSO)",332
same,fold induction at 3.125 µM,"[1]; Homo sapiens, THP1-Lucia ISG, 24 h, Concentration 3.125 μM, three replicates, read-out: Processed reporter response per replicate (reading relative to DMSO)",425
same,fold induction at 6.25 µM,"[1]; Homo sapiens, THP1-Lucia ISG, 24 h, Concentration 6.25 μM, three replicates, read-out: Processed reporter response per replicate (reading relative to DMSO)",434
same,fold induction at 12.5 µM,"[1]; Homo sapiens, THP1-Lucia ISG, 24 h, Concentration 12.5 μM, three replicates, read-out: Processed reporter response per replicate (reading relative to DMSO)",407
same,EC50,[1]; [2],0.71 µM
same,Raw readings,[1]; SC2S 0.024414 uM,620 RLU and 583 RLU and 1367 RLU and 1519 RLU and 365 RLU and 638 RLU
same,Raw readings,[1]; SC2S 0.048828 uM,577 RLU and 837 RLU and 1473 RLU and 1276 RLU and 668 RLU and 425 RLU
same,Raw readings,[1]; SC2S 0.097656 uM,783 RLU and 620 RLU and 2316 RLU and 2552 RLU and 1504 RLU and 372 RLU
same,Raw readings,[1]; SC2S 0.195313 uM,2302 RLU and 2526 RLU and 10005 RLU and 13263 RLU and 15158 RLU and 614 RLU
same,Raw readings,[1]; SC2S 0.390625 uM,13233 RLU and 15402 RLU and 73880 RLU and 85525 RLU and 96208 RLU and 759 RLU
same,Raw readings,[1]; SC2S 0.78125 uM,80951 RLU and 92499 RLU and 198651 RLU and 223105 RLU and 189225 RLU and 37417 RLU
same,Raw readings,[1]; SC2S 1.5625 uM,175164 RLU and 179560 RLU and 265669 RLU and 303539 RLU and 222866 RLU and 166854 RLU
same,Raw readings,[1]; SC2S 3.125 uM,222262 RLU and 231080 RLU and 301434 RLU and 333311 RLU and 245937 RLU and 322808 RLU
same,Raw readings,[1]; SC2S 6.25 uM,230364 RLU and 232723 RLU and 323434 RLU and 349356 RLU and 281517 RLU and 362047 RLU
same,Raw readings,[1]; SC2S 12.5 uM,216991 RLU and 217865 RLU and 313187 RLU and 335098 RLU and 238105 RLU and 315297 RLU
same,2dpi phagocytosis,Hs578T xenografts; experiment 230522,35 and 30 and 42 and 17 and 0* and 22 and 16
same,2dpi phagocytosis,Hs578T xenografts; experiment 230726,62 and 48 and 23 and 18 and 44 and 12 and 10 and 20
same,M1 (M1/M2),Hs578T xenografts; 2dpi,56.4103 and 69.5652 and 75.5556 and 67.5 and 90 and 84.6154 and 78.7234 and 82.8947 and 70.4918 and 72.549 and 65.3846 and 65 and 82.6087 and 55.5556 and 72.2222
same,M2 (M1/M2),Hs578T xenografts; 2dpi,43.5897 and 30.4348 and 24.4444 and 32.5 and 10 and 15.3846 and 21.2766 and 17.1053 and 29.5082 and 27.451 and 34.6154 and 35 and 17.3913 and 44.4444 and 27.7778
same,apoptosis (activated Caspase 3) in xenografts,Hs578T xenografts,significantly induced apoptosis
same,M1 (M1/M2),Hs578T xenografts; 4dpi,36.3636 and 58.3333 (2×) and 42.8571 and 37.5 and 12.5 and 25 and 54.5455 and 41.1765 and 31.4286 and 70.3704 and 40 and 39.1304 and 37.037 and 33.3333
same,M2 (M1/M2),Hs578T xenografts; 4dpi,63.6364 and 41.6667 (2×) and 57.1429 and 62.5 and 87.5 and 75 and 45.4545 and 58.8235 and 68.5714 and 29.6296 and 60 and 60.8696 and 62.963 and 66.6667
same,Caspase-3,Hs578T xenografts; experiment 230522,1.443 and 1.289 and 1.712 and 1.324 and 1.988 and 1.517 and 1.448 and 1.484 and 1.486 and 2.204 and 2.224
same,TAM,Hs578T xenografts; experiment 230522,2.1705 and 1.352 and 2.571 and 2.448 and 1.557 and 1.167
same,Tumor Size,Hs578T xenografts; experiment 230522,1.033 and 0.4622 and 0.7179 and 0.9145 and 1.19 and 0.9204 and 0.6815 and 0.7277 and 0.5409 and 0.7788
same,Caspase-3,Hs578T xenografts; experiment 230726,1.045 and 1.374 and 1.091 and 2.171 and 0.9199 and 1.451 and 2.115
same,TAM,Hs578T xenografts; experiment 230726,1.204 and 2.4711 and 1.9907 and 1.109 and 1.5815 and 1.362 and 3.515 and 1.246
same,Tumor Size,Hs578T xenografts; experiment 230726,0.495 and 0.08364 and 0.7374 and 1.174 and 0.7912 and 0.9371 and 0.8603
